Results taken from patent US20010000731A1, “Method for the prevention and treatment of chronic venous insufficiency” (priority 1999, published 2001).

What follows are compounds tested on swelling of the recto-anus induced by croton oil (assay: Croton oil-induced hemorrhoid model in rats (recto-anus coefficient, RAC)). Conditions: male SD rats; pure alkaloid oral 1 mg/kg; RAC determined 24 hours after induction; FIG. 3.
Type: in vivo, rat
Description: Male SD rats (6 weeks old, approximately 140 g) were purchased from Harlan Sprague Dawley and allowed to acclimate for 1 week. The rats were maintained in a pathogen-free facility in accordance with the National Research Council of Laboratory Animal care and use guidelines. Each experiment was preformed with age-matched rats 7- 8 weeks old. The croton oil-induced hemorrhoid model in rats was performed according to the method published by Nishiki (Nishiki et al. (1988) Folia Pharmacology Japan 92:215- 225; Nishiki et al. (1988) Folia Pharmacol. Japan 92:227-240). Briefly, a cotton swab with a diameter of 4 mm soaked with 0.16 mL of inducer (deionized water: pyridine : ethyl ether: 6% croton oil/ethyl ether (1:4:5:10) was applied to the rat's anus for 12 seconds. The final concentration of croton oil was 3%. The edema developed linearly until 7-8 hours after application and the severity of the edema was sustained for more than 24 hours. Twenty-four hours later, recto-anus tissue (approx. 10 mm long) was isolated after the rats were euthanized. The weights of rat body and recto-anus were measured. The recto-anus coefficient (RAC) was calculated using the formula: weight of recto-anus (mg)/body weight (g).
The average RAC of croton oil-treated rats was 2.10, which was 38.2% higher than that the rats treated with vehicle only (RAC=1.52). Vehicle alone did cause significant swelling of the recto-anus as compared with the rats without any treatment (RAC=0.98). Twenty-four hours after hemorrhoid induction with croton oil followed by treatment orally with prickly ash extract at either 6 mg/kg or 30 mg/kg and by treatment topically with prickly ash extract at 6 mg/mL in 1:1 aquaphor, the RAC of rats was determined.
This experiment was performed as described in Example 5. […] Twenty-four hours after hemorrhoid induction with croton oil followed by treatment orally with the pure alkaloids isolated from prickly ash extract at 1 mg/kg, the RAC of rats was determined. […]

Row | Compound | inhibition of the swelling of the recto-anus induced by croton oil (RAC)
1 | COc1cc2c(cc1O)C[C@H]1c3c(cc(OC)c(O)c3-2)CC[N+]1(C)C [Laurifoline] | partially reduced
2 | COc1ccc2c(c1O)-c1c(O)c(OC)cc3c1[C@H](C2)[N+](C)(C)CC3 [Magnoflorine] | completely inhibited
3 | Chelerythrine | partially reduced
